Assay results: patent US20060069132A1, “Azolecarboxamide herbicides” (priority 2004, published 2006)

How the values were obtained:
barnyardgrass [1] = test: Test B pre-/postemergence herbicide test; type: in vivo, Echinochloa crus-galli; conditions: for Barnyardgrass plant response rating: postemergence
Method in brief: (§1)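 Plants compared with untreated controls 13–15 days post-treatment and given a visual 0–100 injury score. Applications: preemergence to seeds; postemergence at 1- to 4-leaf (2–18 cm); paddy species flooded, 2-leaf stage. Vehicle non-phytotoxic, surfactant included.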

cocklebur = test: Test B pre-/postemergence herbicide test; type: in vivo, Xanthium strumarium; conditions: for Cocklebur plant response rating: postemergence
Method in brief: as §1

morningglory [2] = test: Test A pre-/postemergence herbicide test; type: in vivo, Ipomoea spp.
Method in brief: (§2)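 Both application timings were run together: directed soil spray over freshly planted seeds in sandy loam, and runoff spray onto 2–10 cm seedlings. Evaluation after ~10 days in greenhouse used a 0–100 visual scale versus untreated controls.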

barnyardgrass [3] = test: Test B flooded paddy test; type: in vivo, Echinochloa crus-galli; conditions: 1000 g ai/ha, scale 0 to 100 (0 no effect, 100 complete control)
Method in brief: (§3)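 Formulated test chemicals went onto postemergence plants measuring 2 to 18 cm, at one to four leaves. For the paddy assay, species had reached two leaves. Scoring took place 13–15 days later by eye, relative to untreated plants, using 0 for no effect up to 100 for full control.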

rice [4] = test: Test B flooded paddy test; type: in vivo, Oryza sativa; conditions: 1000 g ai/ha, scale 0 to 100 (0 no effect, 100 complete control)
Method in brief: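 Read-out: visual comparison with controls, scored 0 to 100, where 100 means complete control and 0 no effect. Formulated chemicals were applied postemergence to plants 2–18 cm tall (1- to 4-leaf), or to flooded-paddy plants at the 2-leaf stage, then held 13 to 15 days under glass.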

wheat = test: Test B postemergence herbicide test; type: in vivo, Triticum aestivum; design: key to Wheat plant response rating: 0 = no effect, 100 = complete control; conditions: postemergence
Method in brief: (§4)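 Visual ratings, 0 (no effect) to 100 (complete control), made versus controls after 13–15 d greenhouse. Paddy plants treated at 2-leaf stage; postemergence plants at 1- to 4-leaf stage, 2–18 cm tall.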

blackgrass = test: Test B postemergence herbicide test; type: in vivo, Alopecurus myosuroides; conditions: postemergence
Method in brief: as §3

giant foxtail [5] = test: Test B pre-/postemergence herbicide test; type: in vivo, Setaria faberi; conditions: for Foxtail, Giant plant response rating: postemergence
Method in brief: (§5)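 Visual rating, 0 (no effect) to 100 (complete control), versus untreated controls after 13–15 d in greenhouse. Pre- and postemergence applications (postemergence plants 2–18 cm, 1–4 leaves); flooded paddy arm at 2-leaf stage. Compounds in non-phytotoxic solvent plus surfactant.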

redroot pigweed = test: Test A pre-/postemergence herbicide test; type: in vivo, Amaranthus retroflexus
Method in brief: as §2

velvetleaf [6] = test: Test A pre-/postemergence herbicide test; type: in vivo, Abutilon theophrasti
Method in brief: as §2

velvetleaf [7] = test: Test B pre-/postemergence herbicide test; type: in vivo, Abutilon theophrasti; conditions: for Velvetleaf plant response rating: postemergence
Method in brief: as §5

lambsquarters = test: Test B pre-/postemergence herbicide test; type: in vivo, Chenopodium album; conditions: for Lambsquarters plant response rating: postemergence
Method in brief: as §5

pigweed = test: Test B pre-/postemergence herbicide test; type: in vivo, Amaranthus retroflexus; conditions: for Pigweed plant response rating: postemergence
Method in brief: as §5

large crabgrass [8] = test: Test A pre-/postemergence herbicide test; type: in vivo, Digitaria sanguinalis
Method in brief: as §2

giant foxtail [9] = test: Test A pre-/postemergence herbicide test; type: in vivo, Setaria faberi
Method in brief: as §2

[10] = test system: small flower umbrella sedge; test: Test B flooded paddy test; type: in vivo, Cyperus difformis; conditions: 1000 g ai/ha, scale 0 to 100 (0 no effect, 100 complete control)
Method in brief: as §3

ducksalad = test: Test B flooded paddy test; type: in vivo, Heteranthera limosa; conditions: 1000 g ai/ha, scale 0 to 100 (0 no effect, 100 complete control)
Method in brief: as §3

Surinam grass = test: Test B pre-/postemergence herbicide test; type: in vivo, Urochloa decumbens; conditions: for Surinam Grass plant response rating: postemergence
Method in brief: as §5

wild oat = test: Test B postemergence herbicide test; type: in vivo, Avena fatua; conditions: postemergence
Method in brief: as §4

rice [11] = test: Test B pre-/postemergence herbicide test; type: in vivo, Oryza sativa; conditions: 0 = no effect, 100 = complete control, preemergence
Method in brief: as §5

large crabgrass [12] = test: Test B pre-/postemergence herbicide test; type: in vivo, Digitaria sanguinalis; conditions: for Crabgrass, Large plant response rating: postemergence
Method in brief: as §5

morningglory [13] = test: Test B pre-/postemergence herbicide test; type: in vivo, Ipomoea coccinea; conditions: for Morningglory plant response rating: postemergence
Method in brief: as §1

corn = test: Test B pre-/postemergence herbicide test; type: in vivo, Zea mays; conditions: for Corn plant response rating: postemergence
Method in brief: as §5

barnyardgrass [14] = test: Test A pre-/postemergence herbicide test; type: in vivo, Echinochloa crus-galli
Method in brief: as §2

[15] = 125 g ai/ha, 0 = no effect, 100 = complete control, preemergence
[16] = 500 g ai/ha, visual rating, 0 = no effect, 100 = complete control, preemergence
[17] = 125 g ai/ha, visual rating, scale 0 (no effect) to 100 (complete control)
[18] = 500 g ai/ha, scale 0 to 100, 0 is no effect, 100 is complete control
[19] = Postemergence, 500 g ai/ha, 0 to 100 scale, 0 no effect, 100 complete control
[20] = Postemergence, 2000 g ai/ha, 0 to 100 scale, 0 no effect, 100 complete control
[21] = Preemergence, 2000 g ai/ha, visual rating, 0 to 100 scale (0 no effect, 100 complete control)
[22] = preemergence, 500 g ai/ha, visual injury, 0 to 100 scale (0 no effect, 100 complete control)

CCn1nc(C(C)(C)C)cc1C(=O)Nc1ccnc(C(=O)N2CC=CC2)c1 [Compound 282]
65: Crabgrass, Large plant response rating (large crabgrass [8]; [21])
90: Pigweed plant response rating (redroot pigweed; [21]) | Pigweed plant response rating (redroot pigweed; [22])
30: Barnyardgrass plant response rating (0 to 100 scale) (barnyardgrass [1]; [15]) | Wheat plant response rating (wheat; [17]) | Wheat plant response rating (wheat; [18]) | Blackgrass plant response rating (blackgrass; [18]) | Plant response rating, Velvetleaf (velvetleaf [7]; [16]) | Barnyardgrass plant response rating (barnyardgrass [14]; [22])
10: Cocklebur plant response rating (cocklebur; [17]) | Morningglory plant response rating (morningglory [2]; [22]) | Foxtail, Giant plant response rating (0 to 100 scale) (giant foxtail [5]; [15]) | Velvetleaf plant response rating (0 to 100 scale) (velvetleaf [7]; [15]) | Velvetleaf plant response rating (velvetleaf [7]; [17]) | Lambsquarters plant response rating (lambsquarters; [17]) | Crabgrass, Large plant response rating (large crabgrass [8]; [19]) | Foxtail, Giant plant response rating (giant foxtail [9]; [22]) | Surinam Grass plant response rating (Surinam grass; [17]) | Surinam Grass plant response rating (Surinam grass; [18]) | Rice plant response rating (0 to 100 scale) (rice [11]; 125 g ai/ha) | Crabgrass, Large plant response rating (0 to 100 scale) (large crabgrass [12]; [15]) | Crabgrass, Large plant response rating (large crabgrass [12]; [17]) | Crabgrass, Large plant response rating (large crabgrass [12]; [18]) | Morningglory plant response rating (morningglory [13]; [17]) | Corn plant response rating (corn; [17])
25: Plant response rating, Crabgrass, Large (large crabgrass [8]; [20]) | Plant response rating, Foxtail, Giant (giant foxtail [9]; [20])
75: Pigweed plant response rating (redroot pigweed; [19]) | Barnyardgrass plant response rating (barnyardgrass [14]; [21])
0: Barnyardgrass plant response rating (barnyardgrass [1]; [17]) | Cocklebur plant response rating (0 to 100 scale) (cocklebur; [15]) | Plant response rating, Cocklebur (cocklebur; [16]) | Sedge, Umbrella plant response rating [10] | Surinam Grass plant response rating (0 to 100 scale) (Surinam grass; [15]) | Oat, Wild plant response rating (wild oat; [17]) | Morningglory plant response rating (0 to 100 scale) (morningglory [13]; [15]) | Plant response rating, Morningglory (morningglory [13]; [16]) | Corn plant response rating (0 to 100 scale) (corn; [15]) | Plant response rating, Corn (corn; [16])
80: Ducksalad plant response rating (ducksalad) | Plant response rating, Crabgrass, Large (large crabgrass [12]; [16]) | Plant response rating, Barnyardgrass (barnyardgrass [14]; [20])
20: Barnyardgrass plant response rating (barnyardgrass [1]; [18]) | Cocklebur plant response rating (cocklebur; [18]) | Barnyardgrass plant response rating (barnyardgrass [3]) | Rice plant response rating (rice [4]) | Blackgrass plant response rating (blackgrass; [17]) | Plant response rating, Foxtail, Giant (giant foxtail [5]; [16]) | Foxtail, Giant plant response rating (giant foxtail [5]; [17]) | Foxtail, Giant plant response rating (giant foxtail [5]; [18]) | Velvetleaf plant response rating (velvetleaf [6]; [22]) | Velvetleaf plant response rating (velvetleaf [7]; [18]) | Pigweed plant response rating (pigweed; [17]) | Foxtail, Giant plant response rating (giant foxtail [9]; [19]) | Plant response rating, Surinam Grass (Surinam grass; [16]) | Oat, Wild plant response rating (wild oat; [18]) | Morningglory plant response rating (morningglory [13]; [18]) | Corn plant response rating (corn; [18])
100: Plant response rating, Pigweed (redroot pigweed; [20]) | Lambsquarters plant response rating (0 to 100 scale) (lambsquarters; [15]) | Plant response rating, Lambsquarters (lambsquarters; [16]) | Pigweed plant response rating (0 to 100 scale) (pigweed; [15]) | Plant response rating, Pigweed (pigweed; [16])
45: Velvetleaf plant response rating (velvetleaf [6]; [21])
40: Morningglory plant response rating (morningglory [2]; [21]) | Crabgrass, Large plant response rating (large crabgrass [8]; [22]) | Foxtail, Giant plant response rating (giant foxtail [9]; [21]) | Plant response rating, Rice (rice [11]; 500 g ai/ha, visual rating) | Barnyardgrass plant response rating (barnyardgrass [14]; [19])
60: Lambsquarters plant response rating (lambsquarters; [18]) | Pigweed plant response rating (pigweed; [18])
50: Plant response rating, Barnyardgrass (barnyardgrass [1]; [16]) | Velvetleaf plant response rating (velvetleaf [6]; [19]) | Plant response rating, Velvetleaf (velvetleaf [6]; [20])
15: Morningglory plant response rating (morningglory [2]; [19]) | Plant response rating, Morningglory (morningglory [2]; [20])
